Results reported in patent publication US6337333B1, “Method of treating autoimmune disease with fludarabine-5′-monophosphate” (priority 1992, dated 2002).

Tests used:
[1] = system: Type II collagen-induced arthritis; settings: cited from earlier work
[2] = system: T lymphocytes; assay: T lymphocyte proliferative response to mitogen after 18 hr drug pretreatment (3H-thymidine); assay type: cell-based, human; settings: 18 hr pretreatment, FIG. 1A
Description: (§1) In FIG. 1, freshly isolated PBMC were enriched for T and B lymphocytes using Nylon Wool (see Materials and Methods, Example A). The enriched lymphocyte subpopulations were then incubated for 18 hrs at 37° C. with various concentrations of drug. At the end of the pretreatment period, the cell samples were washed, adjusted to 2×10^5 viable cells/ml, and cultured at 1×10^4/well in flat (B cells) or round (T cells) bottomed 96 well microtiter plates in […]. The T cells were incubated for 3 days with PHA-P ([…]) or Con A (5 μg/ml) and the B cells were cultured for 6 days with either PWM (2 μg/ml) or SAC ({fraction (1/60,000)}). 1 μCi of ^3H-thymidine was added per well during the last 18 hr of culture. The wells were then harvested onto glass fiber filters, and counted in 7 ml of Cytoscint (ICN) on the LKB 1219 Rackbeta scintillation counter. The results are expressed as the mean cpm of triplicate wells.
(§2) Peripheral blood mononuclear cells obtained from normal donors as packed leukocyte preparations were enriched for T and B lymphocytes and pretreated with drug for 18 hrs prior to mitogen stimulation.
(§3) Peripheral blood mononuclear cells enriched for either T or B lymphocytes were incubated for 18 hrs in complete S-10 medium at 37° C. in 12×75 mm culture tubes at 5×10^5 cells/ml. The cells were then washed in S-10 and cultured in triplicate for either 3 (T lymphocytes) or 6 (B lymphocytes) days at 2.5×10^4/well in round bottom 96-well microtiter plates in S-10 medium at 37° C. and a 5% CO2 humidified atmosphere. The wells were pulsed with 1 μCi 3H-thymidine for the last 18 hr of culture, harvested onto glass fiber filters, and counted with 7 ml Cytoscint with a LKB Rackbeta scintillation counter. The results are reported as “percent Suppression”:
(§4) % Suppression={1−(mean cpm exp./mean cpm stim control)}×100

[3] = system: B lymphocytes; assay: B lymphocyte proliferative response to mitogen after 18 hr drug pretreatment (3H-thymidine); assay type: cell-based, human; settings: 18 hr pretreatment, FIG. 1B
Description: as §1, §2, §3, §4

[4] = system: IgM-RF and IgM production; settings: therapeutic concentrations of drug; cited from earlier work

**Q.** Which effect on disease [1] does the source give for `CC(C)(S)[C@@H](N)C(=O)O` [D-penicillamine] here?
**A.** early onset of the disease

**Q.** With `Nc1nc(F)nc2c1ncn2[C@@H]1O[C@H](CO)[C@@H](O)[C@@H]1O` [F] as the molecule, how does the “suppression of T lymphocyte's ability to respond to mitogen” value [2] read?
**A.** suppress

**Q.** What about the “suppression of B lymphocyte's ability to respond to mitogen” value [3] of the same molecule?
**A.** suppress

**Q.** For `O=C([O-])c1ccccc1Nc1cc(Cl)ccc1C(=O)[O-].[Na+].[Na+]` [lobenzarit, disodium 4-chloro-2,2′-iminodibenzoate], which “production of IgM” value [4] is on record?
**A.** suppressed

**Q.** And the “production of IgM-RF” value [4]?
**A.** suppressed
